US12359238B2 (priority 2017, dated 2025)

Legend:
[1] = molecular target: T1, FGM (FAD-GDH-MCD): Burkholderia cepacia FAD-GDH alpha subunit fused to minimal cytochrome domain MCR-2 of MamP (magnetoovoid bacterium MO-127), full DNA constru (Burkholderia lata, UniProt Q397F4); assay type: biochemical
T1 construct: gamma co-expressed; E. coli BL21

[2] = molecular target: FGM-S247PCA: FGM (Burkholderia cepacia FAD-GDH-MCD) variant S247PrK (S247X, SEQ ID NO: 20), EDC-NHS coupled to PCA linker (Burkholderia lata, UniProt Q397F4); conditions: read-out: KM^app (electrochemical); glucose; 300 mV vs. Ag/AgCl, 100 mM acetate buffer pH=5.0, RT; non-linear fit
Experimental: (§1) The current from each glucose concentration (10 μM-10 mM) was measured in triplicates; curves of the mean currents are presented with standard deviations. […] The current was measured in triplicates and the mean current values were used for the linear regression and are presented with error bars (FIG. 18H);
(§2) Pyrrolysyl orthogonal translation system (pylOTS) DNA sequence was amplified from the pEVOL plasmid using polymerase chain reaction (PCR) and cloned into the backbone of pec86 plasmid using Gibson's assembly to generate a new plasmid called pec86-pylOTS (FIG. 15A). pylOTS allows the continuous expression of an orthogonal translation system (orthogonal tRNA and aminoacyl tRNA synthetase) for incorporation of PrK (1) using the amber (TAG) stop codon suppression, while the pec86 plasmid is responsible for the continuous expression of E. coli cytochrome c maturation system. […] Four different TAG mutants were planned using site-directed mutagenesis, according to GDH crystal structure. Our guiding rational for mutation sites was to control the enzyme orientation in a manner that will allow proximity of 14 Å or less between the FAD or heme site and the electrode, without interference with the protein structure and correct folding. The sites that were tested were R42TAG and S247TAG, which are in close proximity to the FAD binding-site, while T558TAG (FIG. 11C, right panel) is in a close proximity to the heme domain.
(§3) The azide in (2) was clicked to the alkyne residue of (FIG. 11B, 1). 3 μM of protein sample was mixed with 400 μM (2), 2 mM tris pH=8.2, 10 mM KCl, 1 mM Cu(I), 1.2 mM THPTA, 2.5 mM NaAsc and 10% Dimethyl sulfoxide (DMSO). The reaction was incubated for 1 h in the dark at room temperature with shaking, then transferred to 4° C. for two days before use.

[3] = molecular target: FGM-S247PDAz: FGM (Burkholderia cepacia FAD-GDH-MCD) variant S247PrK (S247X, SEQ ID NO: 20), clicked to PDAz linker (Burkholderia lata, UniProt Q397F4); conditions: read-out: KM^app (electrochemical); glucose; 300 mV vs. Ag/AgCl, 100 mM acetate buffer pH=5.0, RT; non-linear fit
Experimental: as §1, §2, §3

[4] = test system: FGM-T558PDAz: FGM (Burkholderia cepacia FAD-GDH-MCD) variant T558PrK (T558X, SEQ ID NO: 22), clicked to PDAz linker; conditions: read-out: KM^app (electrochemical); glucose; 300 mV vs. Ag/AgCl, 100 mM acetate buffer pH=5.0, RT; non-linear fit
Experimental: as §1, §2, §3

[5] = molecular target: GDH-S247PDAz: Burkholderia cepacia FAD-GDH variant S247PrK lacking the MCD domain, clicked to PDAz linker (Burkholderia lata, UniProt Q397F4); conditions: read-out: KM^app (electrochemical); glucose; 300 mV vs. Ag/AgCl, 100 mM acetate buffer pH=5.0, RT; non-linear fit
Experimental: as §1, §2, §3

With `OC[C@H]1OC(O)[C@H](O)[C@@H](O)[C@@H]1O` (stereo partly drawn) [glucose] the “KM^app value times higher for FGM compared to GDH” value [1] was “ca. 3 times”, the “catalytic efficiency (k) times higher compared to GDH” value ([1]; FGM compared to GDH, D-glucose) was “more than 3 times” and the Km [2] was 1820 ± 180 µM. It also gave a Km [3] of 1890 ± 100 µM, a Km [4] of 1580 ± 220 µM and a Km [5] of 1550 ± 160 µM.
